The first experiment relates to A2780 cells. In words: In-vitro cell proliferation assay (SRB, 72 hours). The settings on record: Homo sapiens, A2780, 72 h, A2780 cells, 72 hours, SRB; read-out: Cell Proliferation (IC50). In kind it is cell-based.
Take `Cc1cc(C)c(C(=O)N2CCC3(CC2)CC3CNC(=O)c2cc3ccncc3o2)cn1` (centres unmarked) [Example 281, N-[[6-(4,6-dimethylpyridine-3-carbonyl)-6-azaspiro[2.5]octan-2-yl)methyl]furo[2,3-c]pyridine-2-carboxamide]: the IC50 amounted to 18.5 nM.

As to `Cc1nn(C(C)(C)C)c(C)c1C(=O)N1CCC2(CC1)CC2CNC(=O)c1cc2ccncc2o1` (centres unmarked) [Example 294, N-[[6-(1-tert-butyl-3,5-dimethyl-pyrazole-4-carbonyl)-6-azaspiro[2.5]octan-2-yl]methyl]furo[2,3-c]pyridine-2-carboxamide], the IC50 is 12.1 nM.

With `Cc1nn(Cc2ccccc2)c(C)c1C(=O)N1CCC2(CC1)CC2CNC(=O)c1cc2ccncc2o1` (centres unmarked) [Example 295, N-[[6-(1-benzyl-3,5-dimethyl-pyrazole-4-carbonyl)-6-azaspiro[2.5]octan-2-yl]methyl]furo[2,3-c]pyridine-2-carboxamide], the IC50 amounted to 0.944 nM.

Turning to `Cn1nc(C(C)(C)C)cc1C(=O)N1CCC2(CC1)CC2CNC(=O)c1cc2ccncc2o1` (centres unmarked) [Example 296, N-[[6-(5-tert-butyl-2-methyl-pyrazole-3-carbonyl)-6-azaspiro[2.5]octan-2-yl]methyl]furo[2,3-c]pyridine-2-carboxamide], the IC50 is 10.8 nM.

As for `CCn1nccc1C(=O)N1CCC2(CC1)CC2CNC(=O)c1cc2ccncc2o1` (centres unmarked) [Example 297, N-[[6-(2-ethylpyrazole-3-carbonyl)-6-azaspiro[2.5]octan-2-yl]methyl]furo[2,3-c]pyridine-2-carboxamide], the IC50 is 278 nM.

As to `Cc1cnn(C(C)(C)C)c1C(=O)N1CCC2(CC1)CC2CNC(=O)c1cc2ccncc2o1` (centres unmarked) [Example 298, N-[[6-(2-tert-butyl-4-methyl-pyrazole-3-carbonyl)-6-azaspiro[2.5]octan-2-yl]methyl]furo[2,3-c]pyridine-2-carboxamide], the IC50 turned out to be 103 nM.

As to `Cc1cnn(C)c1C(=O)N1CCC2(CC1)CC2CNC(=O)c1cc2ccncc2o1` (centres unmarked) [Example 299, N-[[6-(2,4-dimethylpyrazole-3-carbonyl)-6-azaspiro[2.5]octan-2-yl]methyl]furo[2,3-c]pyridine-2-carboxamide], the IC50 turned out to be 249 nM.

Consider `O=C(NCC1CC12CCN(C(=O)c1n[nH]c3ccccc13)CC2)c1cc2ccncc2o1` (centres unmarked) [Example 302, N-[[6-(1H-indazole-3-carbonyl)-6-azaspiro[2.5]octan-2-yl]methyl]furo(2,3-c]pyridine-2-carboxamide], for which the IC50 is 90.3 nM.

As to `CC(C)N1CCC(n2cc(C(=O)N3CCC4(CC3)CC4CNC(=O)c3cc4ccncc4o3)cn2)C1` (centres unmarked) [Example 303, N-[[6-(1-(1-isopropylpyrrolidin-3-yl)pyrazole-4-carbonyl]-6-azaspiro[2.5]octan-2-yl]methyl]furo[2,3-c]pyridine-2-carboxamide], the IC50 stood at 2000 nM.

`Cc1nn(C)cc1-c1cc(C(=O)N2CCC3(CC2)CC3CNC(=O)c2cc3ccncc3o2)no1` (centres unmarked) [Example 305, N-[[6-[5-(1,3-dimethylpyrazol-4-yl)isoxazole-3-carbonyl]-6-azaspiro[2.5]octan-2-yl]methyl]furo[2,3-c]pyridine-2-carboxamide]: the IC50 came to 61.2 nM.

Turning to `CC(C)(C)OC(=O)N1Cc2[nH]nc(C(=O)N3CCC4(CC3)CC4CNC(=O)c3cc4ccncc4o3)c2C1` (centres unmarked) [Example 306, tert-butyl 3-[2-[(furo[2,3-c]pyridine-2-carbonylamino)methyl]-6-azaspiro[2.5]octane-6-carbonyl]-4,6-dihydro-1H-pyrrolo[3,4-c]pyrazole-5-carboxylate], the IC50 was 38.8 nM.

With `CN1CCC(n2cc(C(=O)N3CCC4(CC3)CC4CNC(=O)c3cc4ccncc4o3)cn2)C1` (centres unmarked) [Example 307, N-[[6-[1-(1-methylpyrrolidin-3-yl)pyrazole-4-carbonyl]-6-azaspiro[2.5]octan-2-yl]methyl]furo[2,3-c]pyridine-2-carboxamide], the IC50 stood at 26.7 nM.

For the molecule `Cc1cc(C(=O)N2CCC3(CC2)CC3CNC(=O)c2cc3ccncc3o2)n(C(C)(C)C)n1` (centres unmarked) [Example 308, N-[[6-(2-tert-butyl-5-methyl-pyrazole-3-carbonyl)-6-azaspiro[2.5]octan-2-yl]methyl]furo[2,3-c]pyridine-2-carboxamide], the IC50 came out at 2000 nM.

For the molecule `Cc1nc2ccccn2c1C(=O)N1CCC2(CC1)CC2CNC(=O)c1cc2ccncc2o1` (centres unmarked) [Example 309, N-[[6-(2-methylimidazo[1,2-a]pyridine-3-carbonyl)-6-azaspiro[2.5]octan-2-yl]methyl]furo[2,3-c]pyridine-2-carboxamide], the IC50 is 24.7 nM.

Take `Cc1ccc2nc(C(=O)N3CCC4(CC3)CC4CNC(=O)c3cc4ccncc4o3)[nH]c2c1` (centres unmarked) [Example 310, N-[[6-(6-methyl-1H-benzimidazole-2-carbonyl)-6-azaspiro[2.5]octan-2-yl]methyl]furo[2,3-c]pyridine-2-carboxamide]: the IC50 was 30.8 nM.

Take `Cc1cccc2nc(C(=O)N3CCC4(CC3)CC4CNC(=O)c3cc4ccncc4o3)cn12` (centres unmarked) [Example 311, N-[[6-(5-methylimidazo[1,2-a]pyridine-2-carbonyl)-6-azaspiro[2.5]octan-2-yl]methyl]furo[2,3-c]pyridine-2-carboxamide]: the IC50 worked out at 12.1 nM.

`O=C(NCC1CC12CCN(C(=O)c1n[nH]c3cc(F)ccc13)CC2)c1cc2ccncc2o1` (centres unmarked) [Example 312, N-[[6-(6-fluoro-1H-indazole-3-carbonyl)-6-azaspiro[2.5]octan-2-yl]methyl]furo[2,3-c]pyridine-2-carboxamide]: the IC50 amounted to 9.61 nM.

With `O=C(NCC1CC12CCN(C(=O)c1cc3ncccn3n1)CC2)c1cc2ccncc2o1` (centres unmarked) [Example 313, N-[[6-(pyrazolo[1,5-a]pyrimidine-2-carbonyl)-6-azaspiro[2.5]octan-2-yl]methyl]furo[2,3-c]pyridine-2-carboxamide], the IC50 came to 15.9 nM.

As to `CCn1nc(C)c(C(=O)N2CCC3(CC2)CC3CNC(=O)c2cc3ccncc3o2)c1C` (centres unmarked) [Example 314, N-[[6-(1-ethyl-3,5-dimethyl-pyrazole-4-carbonyl)-6-azaspiro[2.5]octan-2-yl]methyl]furo[2,3-c]pyridine-2-carboxamide], the IC50 is 6.76 nM.

On to `Cc1ccc2nc(C(=O)N3CCC4(CC3)CC4CNC(=O)c3cc4ccncc4o3)cn2c1` (centres unmarked) [Example 315, N-[[6-(6-methylimidazo[1,2-a]pyridine-2-carbonyl)-6-azaspiro[2.5]octan-2-yl]methyl]furo[2,3-c]pyridine-2-carboxamide], for which the IC50 came out at 104 nM.

For the molecule `O=C(NCC1CC12CCN(C(=O)c1cnn3ccccc13)CC2)c1cc2ccncc2o1` (centres unmarked) [Example 316, N-[[6-(pyrazolo[1,5-a]pyridine-3-carbonyl)-6-azaspiro[2.5]octan-2-yl]methyl]furo[2,3-c]pyridine-2-carboxamide], the IC50 was 2000 nM.

For `CC(C)c1oncc1C(=O)N1CCC2(CC1)CC2CNC(=O)c1cc2ccncc2o1` (centres unmarked) [Example 318, N-[[6-(5-isopropylisoxazole-4-carbonyl)-6-azaspiro[2.5]octan-2-yl]methyl]furo[2,3-c]pyridine-2-carboxamide], the IC50 turned out to be 2000 nM.

`CC(C)Cc1cc(C(=O)N2CCC3(CC2)CC3CNC(=O)c2cc3ccncc3o2)[nH]n1` (centres unmarked) [Example 319, N-[[6-(3-isobutyl-1H-pyrazole-5-carbonyl)-6-azaspiro[2.5]octan-2-yl]methyl]furo[2,3-c]pyridine-2-carboxamide]: the IC50 came to 55 nM.

`O=C(NCC1CC12CCN(C(=O)c1cn3cccnc3n1)CC2)c1cc2ccncc2o1` (centres unmarked) [Example 320, N-[[6-(imidazo[1,2-a]pyrimidine-2-carbonyl)-6-azaspiro[2.5]octan-2-yl]methyl]furo[2,3-c]pyridine-2-carboxamide]: the IC50 worked out at 549 nM.

Consider `O=C(NCC1CC12CCN(C(=O)c1cnn3cccnc13)CC2)c1cc2ccncc2o1` (centres unmarked) [Example 321, N-[[6-(pyrazolo[1,5-a]pyrimidine-3-carbonyl)-6-azaspiro[2.5]oclan-2-yl]methyl]furo[2,3-c]pyridine-2-carboxamide], for which the IC50 is 2000 nM.

As for `CC(C)(C)c1cc(C(=O)N2CCC3(CC2)CC3CNC(=O)c2cc3ccncc3o2)[nH]n1` (centres unmarked) [Example 322, N-[[6-(3-tert-butyl-1H-pyrazole-5-carbonyl)-6-azaspiro[2.5]octan-2-yl]methyl]furo[2,3-c]pyridine-2-carboxamide], the IC50 was 15.1 nM.

`CC(C)c1cc(C(=O)N2CCC3(CC2)CC3CNC(=O)c2cc3ccncc3o2)n[nH]1` (centres unmarked) [Example 323, N-[[6-(5-isopropyl-1H-pyrazole-3-carbonyl)-6-azaspiro[2.5]octan-2-yl]methyl]furo[2,3-c]pyridine-2-carboxamide]: the IC50 worked out at 2000 nM.

As for `CC(C)c1n[nH]cc1C(=O)N1CCC2(CC1)CC2CNC(=O)c1cc2ccncc2o1` (centres unmarked) [Example 324, N-[[6-(3-isopropyl-1H-pyrazole-4-carbonyl)-6-azaspiro[2.5]octan-2-yl]methyl]furo[2,3-c]pyridine-2-carboxamide], the IC50 was determined as 109 nM.

Turning to `CC(C)n1nccc1C(=O)N1CCC2(CC1)CC2CNC(=O)c1cc2ccncc2o1` (centres unmarked) [Example 325, N-[[6-(2-isopropylpyrazole-3-carbonyl)-6-azaspiro[2.5]octan-2-yl]methy]furo[2,3-c]pyridine-2-carboxamide], the IC50 was 24.7 nM.

For `CCc1cc(C(=O)N2CCC3(CC2)CC3CNC(=O)c2cc3ccncc3o2)n(C)n1` (centres unmarked) [Example 326, N-[[6-(5-ethyl-2-methyl-pyrazole-3-carbonyl)-6-azaspiro[2.5]octan-2-yl]methyl]furo[2,3-c]pyridine-2-carboxamide], the IC50 was 10.9 nM.

In the case of `O=C(NCC1CC12CCN(C(=O)c1cc(C3CC3)on1)CC2)c1cc2ccncc2o1` (centres unmarked) [Example 327, N-[[6-(5-cyclopropylisoxazole-3-carbonyl)-6-azaspiro[2.5]octan-2-yl]methyl]furo[2,3-c]pyridine-2-carboxamide], the IC50 came to 77.6 nM.

The same experiment, now with this note: Homo sapiens; A2780 cells, 72 hours, SRB; read-out: Cell Proliferation (IC50).
Consider `O=C(Cc1ncccn1)N1CCC2(CC1)CC2CNC(=O)N1Cc2ccncc2C1` (centres unmarked) [Example 286, N-[[6-(2-pyrimidin-2-ylacetyl)-6-azaspiro[2.5]octan-2-yl]methyl]-1,3-dihydropyrrolo[3,4-c]pyridine-2-carboxamide], for which the IC50 was 27 nM.
